Measurements: PubChem BioAssay AID2305 (GlaxoSmithKline (GSK), 2010)

system: P. falciparum 3D7 growth, pLDH absorbance; experiment: blood-stage malaria parasite growth potency – strain 3D7, dose response (AID 2305)

Compound	IC50
Fc1ccc2nc(-c3cccc(-c4ccc(CNCc5ccccc5)cc4)c3)[nH]c2c1	270 nM
Cc1ccc(NC(=O)Nc2ccc(I)c(OCCN(C)C)c2)cc1Cl	560 nM
CC(Cc1ccc(OC2CCCCC2)cc1)NCC(O)c1cccc(Cl)c1 (centres undefined)	140 nM
COc1ccc2nccc(CCN3C[C@H](CNCc4ccc5c(n4)NC(=O)CS5)[C@H](O)C3)c2n1	1460 nM
COc1cc2nc(C)nc(Nc3cccc(Br)c3)c2cc1OC	360 nM
O=C(NCc1ccc2c(c1)OCO2)c1nn(CCN2CCC(N3CCCC3)CC2)cc1-c1ccc(Cl)c(Cl)c1	940 nM
CC(C)CC(=O)N1CCNC[C@@H]1C(=O)NCc1ccc(Cl)c(Cl)c1	950 nM
CN1CCN(CC(=O)Nc2ccc(-c3ccc(-c4nc5ccccc5[nH]4)cc3)cc2)CC1	700 nM
COc1cc(C)nc2ccc(NC(=O)Nc3cccc4ccccc34)cc12	880 nM
Cc1ccc(-n2ncc(C(=O)Nc3cc(Cl)cc(Cl)c3)c2C2CCNCC2)cc1C	550 nM
Cc1ccc2nc(C)cc(NN=Cc3cccc(F)c3)c2c1	630 nM
CN(C)CCNCc1cccc(-c2ccc3c(Nc4cc(O)c(Cl)cc4F)ccnc3c2)c1	550 nM
O=C(CC1CCCC1)N(CC1CCN(Cc2ccc(C(F)(F)F)cc2)CC1)c1ccc(N2CCOCC2)c(F)c1	430 nM
CNCc1ccc(-c2cccc(CNCc3ccc(-c4ccccc4)cc3)c2)c(C(=O)OC)c1	980 nM
OCC1CCN(Cc2cccc(-c3cccc(-c4nc5ccc(C(F)(F)F)cc5[nH]4)c3)c2)CC1	510 nM
Cn1cnnc1Sc1ccc(CN2CCOc3ccc(C4=CCCCC4)cc3C2)o1	850 nM
COc1ccc(Nc2ncc3c(-c4ccc(NC(=O)c5cccc(C(F)(F)F)c5)cc4)c[nH]c3n2)cc1OC	1030 nM
Cc1ccc(Nc2nccc(N(C)c3ccc4c(c3)nc(NC(=O)Cc3ccc(Cl)c(Cl)c3)n4C)n2)cc1S(N)(=O)=O	1110 nM
O=C(C1COc2ccccc2O1)N(CCCn1ccnc1)Cc1csc(-c2ccc(CNCc3ccccc3)cc2)n1 (centres undefined)	620 nM
CN1CCC(N(C)c2nccc(N3CCN(Cc4cncn4Cc4ccccc4)CC3)n2)CC1	700 nM
O=C(N[C@@H](CC1CCCCC1)C(=O)NC1CCCc2ccccc21)c1ccc(O)c(-c2cccc([N+](=O)[O-])c2)c1 (some centres undefined)	610 nM
COc1ccc(Nc2nccc(NCCNC(=O)Nc3cc(C)ccc3C)n2)cc1	1050 nM
CCOc1cc(C)ccc1C1CCN(CCCCNC(=O)c2nc(-c3ccc(C(F)(F)F)cc3)[nH]c2C)CC1	730 nM
CC1(C)CCCC(=Cc2ccc(Br)cc2)C1(O)Cn1ccnc1 (centres undefined)	790 nM
NC(=O)NC(=O)C=Cc1ccco1	150 nM

Compound	IC50
Cc1cc(=O)c(-c2ccc(S(=O)(=O)c3ccc(Cl)cc3)cc2)c(C)[nH]1	880 nM
NS(=O)(=O)c1cccc(N=Cc2c(O)[nH]c3ccc(S(=O)(=O)Cc4c(Cl)cccc4Cl)cc23)c1	720 nM
Cc1noc(C)c1-c1cccc(CNCc2cccc(-c3cccc(-c4nc5ccccc5[nH]4)c3)c2)c1	380 nM
Cc1cc(N2CCCC2)nc(Nc2ccc(NC(=O)C(C)(C)C)cc2)n1	1070 nM
COCCn1c(-c2cccc(Cl)c2)nn(-c2ccc([N+](=O)[O-])cc2C#N)c1=S	180 nM
COc1ccc2nccc([C@@H](O)CN3CC[C@H](NCc4cnc5c(c4)NC(=O)CS5)[C@H](F)C3)c2c1	770 nM
CC(C)(CNCc1ccc(F)c(F)c1)c1nc(-c2ccc(Cl)c(O)c2)c(-c2ccnc(N)n2)[nH]1	740 nM
Cc1nccc2c(NC(=O)N[C@@H]3CCN(c4ncc(C(F)(F)F)cc4Br)C3)cccc12	360 nM
CNC(=S)NCc1cnc2ccccn12	200 nM
Cc1ccc(/C=C/C(=O)N2CCC(CCN3CCC(c4c[nH]c5ccccc45)CC3)CC2)cc1C	930 nM
Cc1cccc2[nH]c(-c3cccc(-c4cccc(NC(=O)C(C)CN(C)C)c4)c3)nc12 (centres undefined)	410 nM
COc1ccccc1C1CCN(C2CCC(NC(=O)/C=C/c3cc(F)cc(C(F)(F)F)c3)CC2)CC1 (centres undefined)	900 nM
OCCCCCCNc1nc(NCc2ccccc2-c2ccc(C(F)(F)F)cc2)nc(N2CCNCC2)n1	1440 nM
Cc1cc(N[C@@H](CC(C)C)C(=O)NCCOc2ccccc2)nc(NCCOc2ccccc2)n1	1490 nM
O=[N+]([O-])c1ccc(N2CCCN(C(=S)Nc3ccc(F)cc3Br)CC2)nc1	300 nM
COC(=O)C1(NC(=O)c2ccc(-n3nc(C)c(-c4ccccc4)c3N)cc2)CCCC1	370 nM
COC(=O)Cn1c2ccccc2c2c(N)c(C(=O)OC)c(C)nc21	940 nM
COc1cccc(NC(=O)NCCNc2ccnc(Nc3ccc(F)cc3)n2)c1	920 nM
COc1cccc(Nc2nccc(NCC(O)c3ccc(C(F)(F)F)cc3)n2)c1 (centres undefined)	660 nM
CCCCc1ccc(CCNCCCCCCNCCc2ccc(O)c(O)c2)cc1	1070 nM
N#Cc1ccc2c(c1)CCN(CCC1CCC(NC(=O)c3cc4ccc(Br)cc4[nH]3)CC1)C2 (centres undefined)	760 nM
Cc1ccc2nc(-c3cc(-c4ccc(CO)cc4)cnc3N)[nH]c2c1	860 nM
O=C(/C=C/c1ccc(Cl)c(Cl)c1)NCCCCCN1CCC(c2c[nH]c3ccc(O)cc23)CC1	890 nM
CC1CN(Cc2cccc(C#N)c2)CCN1c1ccc(NC(=O)c2cccs2)cc1 (centres undefined)	680 nM
